The nature of data set [1]: Biodistribution in rabbits: biological half life in the brain by gamma camera imaging. The format is in vivo, Japanese white rabbits (male). The settings on record: for Biological half-life in brain, First phase / Biological half-life in brain, First phase (rate) / Biological half-life in brain, Second phase / Biological half-life in brain, Second phase (rate): rabbit, in vivo; for Accumulation in the cerebral parenchymal cells / biological half life in the brain, first phase / biological half life in the brain, second phase / rate of first phase of biological half life in the brain / rate of second phase of biological half life in the brain: rabbits, Example 10; for Accumulation in the cerebral parenchymal cells: imaging; for biological half life in the brain, first phase / biological half life in the brain, second phase / rate of first phase of biological half life in the brain / rate of second phase of biological half life in the brain: via the carotid artery. The procedure:
Japanese white rabbits (male) were anesthetized with a pentobarbital solution (2.5 mg/kg), and Tc-99m(BI-11o) (0.2 ml, […]) was administered via the carotid artery under a gamma camera (GCA-90B, Toshiba Co., Ltd.). Then, imaging of 112 frames (30 seconds/frame) was made in minutes. A region of interest was drawn around brain on images, and the time-activitycurve of the brain was obtained.
It was thus concluded that the above examination procedure was suitable for evaluation of the accumulation in the brain and the disappearance from the brain.
In the same manner as in Example 10 using other technetium-99m-labeled polyaminedithiol compounds instead of Tc-99m-(BI-11o), their biodistribution in rabbits was examined, and their biological half-life in the brain was calculated.

Data set [2] in a line: Thin layer electrophoresis (EP) of technetium-99m-labeled compounds. The format is physicochemical. The following applies: Table 16, Tc-99m-labeled; 50 mM phosphate buffer pH 7.4, 0.5 mA/cm, room temperature, 15 minutes. The procedure: ZI. Thin layer electrophoresis for Tc-99m-(BI-11c)
An appropriate amount of Tc-99m-(BI-11c) was spotted on an acetylated cellulose membrane and subjected to electrophoresis using 50 mM phosphate buffer (pH, 7.4) as an electrode buffer at a constant current of 0.5 mA/cm and at room temperature for 15 minutes. In the same manner as in ZH, the membrane was scanned to determine the distribution of radioactivity with a thin layer radioachromatoscanner.
In the same manner as in Example 8 ZF, ZG, ZH and ZI but using other polyaminedithiol compounds instead of Compound (11c), preparation of non-radioactive carriers and radioactive diagnostic agents was made. The optimum labeling conditions for the polyaminedithiol compounds were studied. Furthermore, the physical characteristics of the produced technetium-99m-labeled polyaminedithiol compounds were evaluated.

Data set [3] has as its system normal cerebral parenchymal cells. The following applies: in vivo; cited from earlier work.

The text below walks through data of patent US5071636A, “Chelating compounds and their use” (Nihon Medi-Physics Co., Ltd., priority 1987, dated 1991).

For `CC(C)(S)CNCCNC(CN1CCNCC1)C(C)(C)S` (centres unmarked) [Compound 11h, N-(2-Mercapto-2-methylpropyl)-N'-(2-mercapto-2-methyl-1-piperazinomethylpropyl)ethylenediamine], in data set [1], the “Biological half-life in brain, First phase” value was found to be 1 min; the “Biological half-life in brain, First phase (rate)” value is 44%; the “Biological half-life in brain, Second phase” value came out at 40 min; the “Biological half-life in brain, Second phase (rate)” value worked out at 56%.
Turning to `CC(C)(S)C(CNCCCN1CCOCC1)NCCNC(CNCCCN1CCOCC1)C(C)(C)S` (centres unmarked) [Compound 14s, N,N'-Bis[2-mercapto-2-methyl-1-(3-morpholinopropylamino)methyl-propyl]ethylenediamine], in data set [2], the “EP (Charge)” value is “.smallcircle”.
For the compound `CC(C)(S)CNCCNC(CN1CCCCC1)C(C)(C)S` (centres unmarked) [Compound 11g, N-(2-Mercapto-2-methylpropyl)-N' -(2-mercapto-2-methyl-1-piperidino-methylpropyl)ethylenediamine], in data set [1], the “Biological half-life in brain, First phase” value is reported as 5 min; the “Biological half-life in brain, First phase (rate)” value came to 23%; the “Biological half-life in brain, Second phase” value worked out at 60 min; the “Biological half-life in brain, Second phase (rate)” value came out at 77%.
Take `CCCCSC(C)(C)CNCCNC(CN1CCC(C)CC1)C(C)(C)S` (centres unmarked) [Compound 33, N-(2-Butylthio-2-methylpropyl)-N'-[2-mercapto-2-methyl-1-(4-methylpiperidino)methylpropyl]-ethylenediamine]: the “EP (Charge)” value in data set [2] is recorded as “.smallcircle”. In data set [1], the “Biological half-life in brain, First phase” value is on record as 7 min; the “Biological half-life in brain, First phase (rate)” value was determined as 26%; the “Biological half-life in brain, Second phase” value is on record as 148 min; the “Biological half-life in brain, Second phase (rate)” value was found to be 74%.
Consider `CC(C)(S)CNCCNC(CN1CCCC1)C(C)(C)S` (centres unmarked) [Compound 11r, N-(2-Mercapto-2-methylpropyl)-N'-(2-mercapto-2-methyl-1-pyrrolidinomethylpropyl)ethylenediamine], for which, in data set [1], the “Biological half-life in brain, First phase” value was 3 min; the “Biological half-life in brain, First phase (rate)” value was 28%; the “Biological half-life in brain, Second phase” value is 36 min; the “Biological half-life in brain, Second phase (rate)” value is given as 72%.
Regarding `CC1CCN(CC(NCCNCC(C)(C)S)C(C)(C)S)CC1` (centres unmarked) [Compound 11p, N-(2-Mercapto-2-methylpropyl)-N'-[2-mercapto-2-methyl-1-(4-methylpiperidino)methylpropyl]ethylenediamine], the “EP (Charge)” value in data set [2] is given as “.smallcircle”. Moreover, in data set [1], the “Biological half-life in brain, First phase” value was determined as 3 min; the “Biological half-life in brain, First phase (rate)” value was 18%; the “Biological half-life in brain, Second phase” value is reported as 83 min; the “Biological half-life in brain, Second phase (rate)” value came to 82%.
In the same order, the values of `CCCCCNCC(NCCNCC(C)(C)S)C(C)(C)S` (centres unmarked) [Compound 11d, N-(2-Mercapto-2-methylpropyl)-N' -(1-n-amylaminomethyl-2-mercapto-2-methylpropyl)ethylenediamine] are “.smallcircle”, 18 min, 32%, 184 min and 68%.
With `CC(C)(S)CNCCNC(CN1CCOCC1)C(C)(C)S` (centres unmarked) [Compound 11k, N-(2-Mercapto-2-methylpropyl)-N' -(2-mercapto-2-methyl-1-morpholino-methylpropyl)ethylenediamine], in data set [1], the “Biological half-life in brain, First phase” value was determined as 4 min; the “Biological half-life in brain, First phase (rate)” value was 39%; the “Biological half-life in brain, Second phase” value was determined as 21 min; the “Biological half-life in brain, Second phase (rate)” value was 61%.
Turning to `O=C([O-])CN(CCN(CC(=O)[O-])CC(=O)[O-])CCN(CC(=O)[O-])CC(=O)[O-].[99Tc+4]` [^99m Tc-DTPA, ^99m Tc-labeled diethylenetriaminepentaacetic acid, reference compound], the “accumulation in normal cerebral parenchymal cells” value in data set [3] is recorded as “not accumulating”. In data set [1], the “Accumulation in the cerebral parenchymal cells” value was “no accumulation was seen”; the “biological half life in the brain, first phase” value is 2 minutes; the “biological half life in the brain, second phase” value amounted to 18 minutes; the “rate of first phase of biological half life in the brain” value turned out to be 75%. The “rate of second phase of biological half life in the brain” value in data set [1] worked out at 25%.
For the compound `CCCC(C)NCC(NCCNCC(C)(C)S)C(C)(C)S` (centres unmarked) [Compound 11l, N-(2-Mercapto-2-methylpropyl)-N' -[1-(1-methylbutylamino)-methyl-2-mercapto-2-methylpropyl]ethylene-diamine], in data set [1], the “Biological half-life in brain, First phase” value is 11 min; the “Biological half-life in brain, First phase (rate)” value is given as 34%; the “Biological half-life in brain, Second phase” value is listed as 132 min; the “Biological half-life in brain, Second phase (rate)” value was 66%.
On to `CC(C)(S)C(CNCCN1CCOCC1)NCCNC(CNCCN1CCOCC1)C(C)(C)S` (centres unmarked) [Compound 14r, N,N' -Bis[2-mercapto-2-methyl-1-(2-morpholinoethylamino)methylpropyl]-ethylenediamine], for which the “EP (Charge)” value in data set [2] is “.smallcircle”.
In the case of `CN1CCN(CC(NCCNCC(C)(C)S)C(C)(C)S)CC1` (centres unmarked) [Compound 11i, N-(2-Mercapto-2-methylpropyl)-N' -[2-mercapto-2-methyl-1-(4-methyl-piperazino)methylpropyl]ethylene-diamine], in data set [1], the “Biological half-life in brain, First phase” value worked out at 8 min; the “Biological half-life in brain, First phase (rate)” value came to 50%; the “Biological half-life in brain, Second phase” value turned out to be 686 min; the “Biological half-life in brain, Second phase (rate)” value is 50%.
As to `CC(C)(S)CNCCNC(CN1CCN(Cc2ccccc2)CC1)C(C)(C)S` (centres unmarked) [Compound 11w, N-(2-Mercapto-2-methylpropyl)-N'-[1-(4-benzylpiperazino)methyl-2-mercapto-2-methylpropyl]ethylenediamine], the “EP (Charge)” value in data set [2] is listed as “.smallcircle”. In data set [1], the “Biological half-life in brain, First phase” value was 13 min; the “Biological half-life in brain, First phase (rate)” value came out at 60%; the “Biological half-life in brain, Second phase” value turned out to be 144 min; the “Biological half-life in brain, Second phase (rate)” value is recorded as 40%.
Take `CC(C)(S)CNCCNC(CN1CCC(c2ccccc2)CC1)C(C)(C)S` (centres unmarked) [Compound 11x, N-(2-Mercapto-2-methylpropyl)-N'-[2-mercapto-2-methyl-1-(4-phenylpiperidino)methylpropyl]ethylenediamine]: in data set [2], the “EP (Charge)” value was “.smallcircle”. In addition, in data set [1], the “Biological half-life in brain, First phase” value came to 10 min; the “Biological half-life in brain, First phase (rate)” value amounted to 46%; the “Biological half-life in brain, Second phase” value worked out at 150 min; the “Biological half-life in brain, Second phase (rate)” value is given as 54%.
The matching figures for `CCCCCCNCC(NCCNCC(C)(C)S)C(C)(C)S` (centres unmarked) [Compound 11m, N-(2-Mercapto-2-methylpropyl)-N' -(1-n-hexylaminomethyl-2-mercapto-2-methylpropyl)ethylenediamine]: “.smallcircle”, 3 min, 24%, 58 min and 76%.
As for `CCCCN(CC)CC(NCCNCC(C)(C)S)C(C)(C)S` (centres unmarked) [Compound 11n, N-(2-Mercapto-2-methylpropyl)-N' -[1-(N-butyl-N-ethylamino)-methyl-2-mercapto-2-methylpropyl]ethylenediamine], in data set [1], the “Biological half-life in brain, First phase” value is given as 17 min; the “Biological half-life in brain, First phase (rate)” value worked out at 42%; the “Biological half-life in brain, Second phase” value is reported as 198 min; the “Biological half-life in brain, Second phase (rate)” value is given as 58%.
As for `CC(C)NC(C)Cc1ccc([123I])cc1` (centres unmarked) [Compound I-123-IMP, N-isopropyl-2-methyl-p-iodo(I-123)-phenethylamine, reference compound], in data set [1], the “Accumulation in the cerebral parenchymal cells” value was “observed”; the “biological half life in the brain, first phase” value was determined as 71 minutes; the “biological half life in the brain, second phase” value was found to be 98 minutes; the “rate of first phase of biological half life in the brain” value came out at 39%. Besides, the “rate of second phase of biological half life in the brain” value in data set [1] is listed as 61%.
